Molecular target: Human recombinant carboxy-terminal his-tagged LDHA (amino acids 2-332) (Homo sapiens, UniProt P00338)
Assay: LDHA enzyme inhibition assay (NADH fluorescence)
Details: LDHA IC50 (μM), 1 nM LDHA, NADH and pyruvate, stereochemistry of tested sample given

IC50 [µM]	SMILES
0.077	Cc1cc(Nc2cccc(C3(c4ccsc4)CC(=O)C(Sc4ccccc4Cl)C(=O)N3)n2)n(C)n1 (stereo not shown) [Example 264, 3-((2-chlorophenyl)thio)-6-(6-((1,3-dimethyl-1H-pyrazol-5-yl)amino)pyridin-2-yl)-6-(thiophen-3-yl)piperidine-2,4-dione]
0.144	O=C1CC(c2ccsc2)(c2cccc(OCc3ccc(F)cc3)n2)NC(=O)C1Sc1ccccc1Cl (stereo not shown) [Example 300, 3-((2-chlorophenyl)thio)-6-(6-((4-fluorobenzyl)oxy)pyridin-2-yl)-6-(thiophen-3-yl)piperidine-2,4-dione]
0.004	O=C1CC(c2ccsc2)(c2cccc(Oc3cc(F)cc(CO)c3)n2)NC(=O)C1Sc1ccccc1Cl (single isomer, unassigned) [Example 234, 3-(2-chlorophenyl)sulfanyl-6-[6-[3-fluoro-5-(hydroxy-methyl)phenoxy]-2-pyridyl]-6-(3-thienyl)piperidine-2,4-dione]
0.073	O=C1CC(c2ccsc2)(c2cccc(Oc3cccc4ncccc34)n2)NC(=O)C1Sc1ccccc1Cl (single isomer, unassigned) [Example 137, 3-(2-chlorophenyl)sulfanyl-6-[6-(5-quinolyloxy)-2-pyridyl]-6-(3-thienyl) piperidine-2,4-dione]

From patent US20170001990A1 (Genentech, Inc., priority 2014, published 2017)
